“Also recorded” adds a separate entry of the source.
Experiments:
[1] = tested on: Inflammatory eicosanoid secretion; experiment: Consumption of LCPUFA oils: inflammatory eicosanoid secretion; type: in vivo; conditions: compared to DHA alone
Soybean 15-lipoxygenase = molecular target: T1, Soybean 15-lipoxygenase (Glycine max, UniProt P08170); experiment: 15-lipoxygenase reaction with LCPUFA substrates; type: biochemical; conditions: 100 μM fatty acid, 4 μg/ml enzyme, 0.05M sodium borate buffer pH 9.0, 0° C., absorbance at 238 nm
T1 construct: purchased Sigma-Aldrich
T1 sequence (P08170 1-839): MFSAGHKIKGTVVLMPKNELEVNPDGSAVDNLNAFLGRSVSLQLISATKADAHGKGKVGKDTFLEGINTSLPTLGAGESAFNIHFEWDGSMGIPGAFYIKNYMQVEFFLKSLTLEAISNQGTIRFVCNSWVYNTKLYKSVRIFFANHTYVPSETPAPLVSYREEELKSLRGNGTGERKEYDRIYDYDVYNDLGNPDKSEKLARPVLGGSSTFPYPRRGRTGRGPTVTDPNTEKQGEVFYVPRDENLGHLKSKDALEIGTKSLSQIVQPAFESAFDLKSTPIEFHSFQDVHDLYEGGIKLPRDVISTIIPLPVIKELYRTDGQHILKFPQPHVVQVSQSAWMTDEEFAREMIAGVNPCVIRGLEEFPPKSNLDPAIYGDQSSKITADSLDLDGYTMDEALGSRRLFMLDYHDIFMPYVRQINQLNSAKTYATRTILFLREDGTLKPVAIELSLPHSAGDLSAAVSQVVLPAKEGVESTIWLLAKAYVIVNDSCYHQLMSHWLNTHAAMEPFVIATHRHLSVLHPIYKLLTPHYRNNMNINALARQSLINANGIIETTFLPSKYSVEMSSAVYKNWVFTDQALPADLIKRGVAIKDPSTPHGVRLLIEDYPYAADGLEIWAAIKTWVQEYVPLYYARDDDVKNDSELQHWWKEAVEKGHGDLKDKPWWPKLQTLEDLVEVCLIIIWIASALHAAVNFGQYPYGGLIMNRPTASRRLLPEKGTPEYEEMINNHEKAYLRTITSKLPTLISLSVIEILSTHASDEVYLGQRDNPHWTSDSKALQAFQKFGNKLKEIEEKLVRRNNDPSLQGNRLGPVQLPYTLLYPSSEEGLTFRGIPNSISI
Procedure: Soybean 15-lipoxygenase (Sigma-Aldrich, St. Louis, Mo.) at a final concentration of 4 μg/ml was mixed into 100 μM solutions of DHA, DPAn-6, or DPAn-3 (NuChek Prep, Elysian, Minn.) in 0.05M sodium borate buffer, pH 9.0, and the reaction mixtures were incubated at 0° C. Appearance of the mono-hydroxy conjugated diene derivatives of the fatty acids was monitored through absorbance at 238 nm. Conjugated diene products were quantified using an extinction coefficient of 28,000 M^−1cm^−1 (Shimizu et al; Methods in Enzymology, 1990 Vol 187, 296-306). As shown in Example. 1, 100% of the DPAn-6 was efficiently converted to its conjugated diene derivative under these conditions, whereas about 85% of DPAn-3 and 50% of DHA were converted to their respective conjugated diene (mono-hydroxy) derivative by the 15-lipoxygenase. No appreciable accumulation of the dihydroxy derivatives occurred under these reaction conditions.

[2] = tested on: inflammatory cytokine production; experiment: Consumption of LCPUFA oils: inflammatory cytokine production; type: in vivo; conditions: consumption of the oil; DHA dose approximately three times higher in DHA alone than in the DHA+DPAn-6 oil
[3] = tested on: Carrageenan-induced hind paw edema; experiment: Rat paw edema study with LCPUFA-containing diets; type: in vivo, Sprague Dawley rats; conditions: diets fed 4 weeks, 1% carrageenan, 3 hours post-injection, Day 28
Procedure: Adult, male, Sprague Dawley rats (n=10/treatment group) were fed modified AIN-76 diets formulated to include 1.2% DHA, 1.2% DHA+0.44% DPAn-6, or 1.2% DHA+0.46% arachidonic acid (ARA) for 4 weeks. Carrageenan (1%) was used to induce hind paw edema on Day 14 (left paw) and Day 28 (right paw) of feeding. Edema was measured plethysmographically using water displacement 3 hours post-injection. Similar results were obtained on day 14. *p≦0.05.

[4] = tested on: total cell migration into air pouch exudates; experiment: Mouse dorsal air pouch model: total cell migration; type: in vivo, C57/B16 mice; conditions: 100 ng docosanoid intra-pouch, 100 ng TNFα, 4 hours after TNFα
Description: (§1) Pure 17R-hydroxy DHA (17R-HDHA) was purchased from Caymen Chemicals (Ann Arbor, Mich.). Docosanoids 17-hydroxy-DPAn-6 (17-HDPAn-6) and 10,17-dihydroxyDPAn-6 (10,17-HDPAn-6) were synthesized biogenically from DPAn-6 (NuChek Prep, Elysian, Minn.) using soybean 15-lipoxygenase (Sigma-Aldrich) and purified by HPLC as described in Example 2. Organic solvents were evaporated and the compounds were re-dissolved in phosphate buffered saline (PBS), filter sterilized and concentrations were adjusted to 1000 ng/ml using molar extinction coefficients of 28,000 and 40,000 M^−1cm^−1 for the mono- and dihydroxy docosanoids, respectively. Female C57/B16 mice (n=10 mice per group) were injected with sterile air subcutaneously in the back to initiate dorsal air pouches. Six days later, 0.9 ml sterile PBS followed by 100 ng docosanoid in 0.1 ml PBS or PBS alone were administered by intra-pouch injection. This injection was followed within 5 min by intra-pouch injection of 100 ng of mouse recombinant TNFα (Peprotech, Inc, NJ, USA) in 0.1 ml PBS. Control animals received no TNFα. As a positive control, 2 mg/kg indomethacin (Calbiochem, San Diego, Calif.) was administered intraperitoneally 30 min prior to administration of TNFα. Four hours after TNFα administration, air pouch exudates were removed and cells were stained with Turk's solution and counted. […]

IL-1β = experiment: Mouse dorsal air pouch model: IL-1β in exudates; type: in vivo, C57/B16 mice; conditions: 100 ng docosanoid intra-pouch, 100 ng TNFα, 4 hours after TNFα, ELISA
Description: as §1

[5] = tested on: macrophage chemotactic protein-1 (MCP-1); experiment: Mouse dorsal air pouch model: MCP-1 in exudates; type: in vivo, C57/B16 mice; conditions: 100 ng docosanoid intra-pouch, 100 ng TNFα, 4 hours after TNFα, ELISA
Description: as §1

[6] = tested on: human T lymphocytes stimulated with anti-CD3/anti-CD28 antibodies; experiment: TNFα secretion by human T lymphocytes; type: cell-based; conditions: 6 hrs pretreatment, 41 hrs on anti-CD3/anti-CD28 coated wells, ELISA; difference at 10 nM p=0.037
Procedure: FIG. 22A: Effect of Docosanoids on TNFα Secretion by Human T Lymphocytes. The assay was performed essentially as described in Ariel et al, 2005. Briefly, human peripheral blood mononuclear cells were isolated from venous blood by Ficoll-Paque™ Plus (Amersham biosciences) gradient. T lymphocytes were isolated using a human T cell enrichment column (R&D Systems) per manufacturer's instructions. Purified T cells were treated with 10,17-dihydroxy DPAn-6 or 10,17-dihydroxy DHA or vehicle (0.05% ethanol) in RPMI-1640 media containing 10% heat inactivated fetal bovine serum for 6 hrs at 37° C. Lymphocytes (200,000 cells in 200 μl media per well) were then transferred to 96-well plates coated with both anti-CD3 antibody and anti-CD28 antibody (100 μl of 2 μg/ml of each antibody overnight to coat wells) and incubated for 41 hrs. TNFα concentrations were determined in cell supernatants by ELISA (R&D Systems). Group means±stdev (n=4) were compared by Student's t test. *p<0.05 and **p<0.01 compared to control; # indicates statistical difference (p=0.037) between the groups treated with 10,17-dihydroxy DPAn-6 and 10,17-dihydroxy DHA at the 10 nM concentrations.

docosapentaenoic acid (C22:5n-6) [DPAn-6]
Inflammatory eicosanoid secretion [1]: significantly reduced
converted to conjugated diene (mono-hydroxy) derivative by the 15-lipoxygenase (Soybean 15-lipoxygenase): 100%

CC/C=C\C/C=C\C/C=C\C/C=C\C/C=C\C/C=C\CCC(=O)O [DHA, docosahexaenoic acid (C22:6n-3), reference compound]
converted to conjugated diene (mono-hydroxy) derivative by the 15-lipoxygenase (Soybean 15-lipoxygenase): ~50%
reduction in inflammatory cytokine production [2]: 13-29%

CCCCC/C=C\C/C=C\C/C=C\C/C=C\CCCC(=O)O [ARA, arachidonic acid (C20:4n-6)]
reduction in edema volume [3]: reversed the anti-inflammatory activity of DHA

CCCCCC(O)/C=C/C=C\C/C=C\C/C=C\C/C=C\CCC(=O)O (stereo not shown) [17-hydroxy DPAn-6]
total number of cells in the air pouch (cell infiltration) [4]: significant reductions; also recorded: more potent than both 17R-hydroxy DHA and indomethacin
secretion of IL-1β in air pouch exudates (IL-1β): significant reductions
secretion of MCP-1 in air pouch exudates [5]: significant reductions; also recorded: larger inhibition of MCP-1 secretion than indomethacin

CC/C=C\C/C=C\C/C=C\C/C=C\C/C=C\CCCCCC(=O)O [DPAn-3, docosapentaenoic acid (C22:5n-3)]
converted to conjugated diene (mono-hydroxy) derivative by the 15-lipoxygenase (Soybean 15-lipoxygenase): about 85%

10,17-dihydroxy DPAn-6
reducing TNFα secretion by T lymphocytes [6]: more potent than the DHA analog (10,17,dihydroxy DHA)
total number of cells in the air pouch (cell infiltration) [4]: significant reductions
secretion of IL-1β in air pouch exudates (IL-1β): significant reductions; also recorded: significantly larger than with that produced by either the DHA oxylipin derivative or indomethacin
secretion of MCP-1 in air pouch exudates [5]: significant reductions; also recorded: larger inhibition of MCP-1 secretion than indomethacin

— patent US7884131B2, “Oxylipins from long chain polyunsaturated fatty acids and methods of making and using the same” (Martek Biosciences, Corporation, priority 2004, dated 2011)
